Source: the supplement of paper PMC7394473

What was measured:
Settings in all cases: 72 h
U2OS [1] = assay: GR50 (concentration giving GR = 0.5)
Protocol: (§1)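 U2OS cells treated with full dose titrations of drug; live and dead cells counted by STACK microscopy (mKate2 nuclei, SYTOX Green) at 72 h, biological triplicates. GR and FV dose responses were fitted with 4-parameter logistic models (GR lower bound -1). GRADE (0-100) is the rescaled angle of a linear fit of FV versus GR at doses with GR >= 0, giving the percentage of the response due to cell death.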

U2OS [2] = assay: FV IC50 (concentration giving fractional viability 0.5); higher = less potent killing
Protocol: as §1

U2OS [3] = assay: normalized growth rate inhibition value (GR) relative to untreated cells (GR value (dimensionless, 1 = untreated growth)); higher = less growth inhibition
Protocol: (§2)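 U2OS::Nuc-mKate2 cells seeded in 96-well plates and treated with eight- to ten-point half-log or log dilutions of drug in the presence of 50 nM SYTOX Green. Live (mKate2+) and dead (SYTOX+) cells were counted by IncuCyte STACK live-cell microscopy at 72 h; biological triplicates. GR is the normalised growth-rate inhibition value (Hafner 2016; 1 = untreated growth, <0 = population shrinking). FV is live/(live+dead) cells, not normalised.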

U2OS [4] = assay: drug GRADE (percent of response due to cell death) (% (0-100)); higher = more death-driven response
Protocol: as §1

U2OS [5] = assay: fractional viability (live cells / total cells); higher = less cell death
Protocol: as §2

U2OS [6] = assay: GRmin (fitted minimal GR value at highest effect) (GR value (dimensionless)); higher = less efficacious
Protocol: as §1

COC(=O)c1ccc2c(c1)NC(=O)/C2=C(\Nc1ccc(N(C)C(=O)CN2CCN(C)CC2)cc1)c1ccccc1 [Bibf-1120]
Settings	FV IC50 [µM]	GR50 [µM]	GRmin	drug GRADE
U2OS [1]	–	0.845	–	–
U2OS [2]	1.48	–	–	–
U2OS [4]	–	–	–	50.6
U2OS [6]	–	–	-0.805	–

Settings	fractional viability, U2OS [5]	normalized growth rate inhibition value, U2OS [3]
0.01 µM	0.981	1.08
0.0316 µM	0.975	1.04
0.1 µM	0.974	0.935
0.316 µM	0.947	0.813
1 µM	0.758	0.427
3.16 µM	0.092	-0.468
10 µM	0.00465	-0.767
31.6 µM	0.00201	-0.767

CC(C)C[C@H](NC(=O)[C@H](Cc1ccccc1)NC(=O)c1cnccn1)B(O)O [Bortezomib]
Settings	FV IC50 [µM]	GR50 [µM]	GRmin	drug GRADE
U2OS [1]	–	0.0115	–	–
U2OS [2]	0.0294	–	–	–
U2OS [4]	–	–	–	17.4
U2OS [6]	–	–	-0.899	–

Settings	fractional viability, U2OS [5]	normalized growth rate inhibition value, U2OS [3]
0.01 µM	0.919	0.572
0.0316 µM	0.432	-0.293
0.1 µM	0.00995	-0.811
0.316 µM	0.00177	-0.912
1 µM	0.00348	-0.874
3.16 µM	0.00249	-0.887
10 µM	0.00121	-0.913
31.6 µM	0.000942	-0.902

Nc1cc(C(F)(F)F)c(-c2cc(N3CCOCC3)nc(N3CCOCC3)n2)cn1 [Buparlisib]
Settings	FV IC50 [µM]	GR50 [µM]	GRmin	drug GRADE
U2OS [1]	–	0.439	–	–
U2OS [2]	4.1	–	–	–
U2OS [4]	–	–	–	15.2
U2OS [6]	–	–	-0.554	–

Settings	fractional viability, U2OS [5]	normalized growth rate inhibition value, U2OS [3]
0.00100578 µM	0.986	0.914
0.00317827 µM	0.984	0.956
0.0100433 µM	0.986	0.959
0.0317369 µM	0.986	0.899
0.100289 µM	0.985	0.77
0.316912 µM	0.976	0.704
1.00144 µM	0.868	0.0802
3.16456 µM	0.558	-0.224
10 µM	0.404	-0.493

CC[C@@]1(O)C(=O)OCc2c1cc1n(c2=O)Cc2cc3ccccc3nc2-1 [Camptothecin]
Settings	FV IC50 [µM]	GR50 [µM]	GRmin	drug GRADE
U2OS [1]	–	0.00513	–	–
U2OS [2]	0.761	–	–	–
U2OS [4]	–	–	–	25.1
U2OS [6]	–	–	-0.368	–

Settings	fractional viability, U2OS [5]	normalized growth rate inhibition value, U2OS [3]
0.001 µM	0.969	0.83
0.00316 µM	0.949	0.651
0.01 µM	0.91	0.219
0.0316 µM	0.898	0.0844
0.1 µM	0.869	0.0979
0.316 µM	0.661	-0.0587
1 µM	0.448	-0.211
3.16 µM	0.213	-0.411

Cc1cc(Nc2ncc(Cl)c(Nc3ccccc3S(=O)(=O)C(C)C)n2)c(OC(C)C)cc1C1CCNCC1 [Ceritinib]
Settings	FV IC50 [µM]	GR50 [µM]	drug GRADE
U2OS [1]	–	3.32	–
U2OS [2]	5.27	–	–
U2OS [4]	–	–	7.14

Settings	fractional viability, U2OS [5]	normalized growth rate inhibition value, U2OS [3]
0.00100578 µM	0.991	1.05
0.00317827 µM	0.989	1.06
0.0100433 µM	0.992	1.15
0.0317369 µM	0.988	1.13
0.100289 µM	0.989	1.02
0.316912 µM	0.984	0.964
1.00144 µM	0.98	0.904
3.16456 µM	0.943	0.588
10 µM	0	-1

CCc1cnn2c(NCc3ccc[n+]([O-])c3)cc(N3CCCC[C@H]3CCO)nc12 [Dinaciclib]
Settings	FV IC50 [µM]	GR50 [µM]	GRmin	drug GRADE
U2OS [1]	–	0.00437	–	–
U2OS [2]	0.00807	–	–	–
U2OS [4]	–	–	–	3.29
U2OS [6]	–	–	-0.376	–

Settings	fractional viability, U2OS [5]	normalized growth rate inhibition value, U2OS [3]
0.000100578 µM	0.986	0.892
0.000317827 µM	0.983	0.802
0.00100433 µM	0.984	0.876
0.00317369 µM	0.972	0.756
0.0100289 µM	0.41	-0.288
0.0316912 µM	0.32	-0.406
0.100144 µM	0.339	-0.368
0.316456 µM	0.35	-0.358
1 µM	0.406	-0.373

CC(=O)O[C@@]12CO[C@@H]1C[C@H](O)[C@@]1(C)C(=O)[C@H](O)C3=C(C)[C@@H](OC(=O)[C@H](O)[C@@H](NC(=O)OC(C)(C)C)c4ccccc4)C[C@@](O)([C@@H](OC(=O)c4ccccc4)[C@H]21)C3(C)C [Docetaxel]
Settings	FV IC50 [µM]	GR50 [µM]	GRmin	drug GRADE
U2OS [1]	–	0.000853	–	–
U2OS [2]	0.00477	–	–	–
U2OS [4]	–	–	–	69.6
U2OS [6]	–	–	-0.193	–

Settings	fractional viability, U2OS [5]	normalized growth rate inhibition value, U2OS [3]
0.00100578 µM	0.707	0.339
0.00317827 µM	0.588	0.223
0.0100433 µM	0.41	0.0565
0.0317369 µM	0.413	-0.0266
0.100289 µM	0.323	-0.14
0.316912 µM	0.351	-0.174
1.00144 µM	0.252	-0.245
3.16456 µM	0.238	-0.251
10 µM	0.255	-0.164

COc1cccc2c1C(=O)c1c(O)c3c(c(O)c1C2=O)C[C@@](O)(C(=O)CO)C[C@@H]3O[C@H]1C[C@H](N)[C@H](O)[C@H](C)O1 [Doxorubicin]
Settings	FV IC50 [µM]	GR50 [µM]	GRmin	drug GRADE
U2OS [1]	–	0.0332	–	–
U2OS [2]	2.59	–	–	–
U2OS [4]	–	–	–	3.78
U2OS [6]	–	–	-0.576	–

Settings	fractional viability, U2OS [5]	normalized growth rate inhibition value, U2OS [3]
0.00100578 µM	0.987	0.879
0.00317827 µM	0.99	1.06
0.0100433 µM	0.989	0.832
0.0317369 µM	0.971	0.368
0.100289 µM	0.967	0.0816
0.316912 µM	0.978	0.0197
1.00144 µM	0.851	-0.0749
3.16456 µM	0.113	-0.501
10 µM	0	-1
